Measured values as given in ChEMBL document CHEMBL1136269, “Discovery of a series of (4,5-dihydroimidazol-2-yl)-biphenylamine 5-HT7 agonists” (Bioorg Med Chem Lett, 2003).

Columns and labels:
[1] = biological target: 5-hydroxytryptamine receptor 7 (Rattus norvegicus, UniProt P32305); test: Inhibition of [3H]-5-CT binding to 5-hydroxytryptamine 7 receptor of rat cortical membranes; assay type: cell membranes, Membrane
[2] = biological target: T1, Adrenergic receptor alpha-1 (Rattus norvegicus, UniProt P15823+P23944+P43140); test: Affinity for Alpha-1 adrenergic receptor of rat cortical membranes
T1 sequence (P15823 whole entry): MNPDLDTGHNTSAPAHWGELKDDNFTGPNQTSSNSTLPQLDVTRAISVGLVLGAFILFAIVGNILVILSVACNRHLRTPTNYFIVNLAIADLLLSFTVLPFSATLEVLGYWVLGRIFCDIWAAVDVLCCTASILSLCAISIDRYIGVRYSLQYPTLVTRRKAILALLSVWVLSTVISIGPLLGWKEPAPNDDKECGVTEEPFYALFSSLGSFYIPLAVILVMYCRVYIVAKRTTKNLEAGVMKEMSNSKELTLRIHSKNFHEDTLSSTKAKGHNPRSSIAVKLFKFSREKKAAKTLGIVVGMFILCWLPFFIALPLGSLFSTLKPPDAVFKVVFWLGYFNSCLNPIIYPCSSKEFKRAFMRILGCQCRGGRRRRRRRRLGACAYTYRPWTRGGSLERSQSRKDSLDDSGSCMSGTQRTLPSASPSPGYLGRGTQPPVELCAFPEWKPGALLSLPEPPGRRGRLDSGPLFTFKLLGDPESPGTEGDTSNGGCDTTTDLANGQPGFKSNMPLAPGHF
T1 sequence (P23944 whole entry): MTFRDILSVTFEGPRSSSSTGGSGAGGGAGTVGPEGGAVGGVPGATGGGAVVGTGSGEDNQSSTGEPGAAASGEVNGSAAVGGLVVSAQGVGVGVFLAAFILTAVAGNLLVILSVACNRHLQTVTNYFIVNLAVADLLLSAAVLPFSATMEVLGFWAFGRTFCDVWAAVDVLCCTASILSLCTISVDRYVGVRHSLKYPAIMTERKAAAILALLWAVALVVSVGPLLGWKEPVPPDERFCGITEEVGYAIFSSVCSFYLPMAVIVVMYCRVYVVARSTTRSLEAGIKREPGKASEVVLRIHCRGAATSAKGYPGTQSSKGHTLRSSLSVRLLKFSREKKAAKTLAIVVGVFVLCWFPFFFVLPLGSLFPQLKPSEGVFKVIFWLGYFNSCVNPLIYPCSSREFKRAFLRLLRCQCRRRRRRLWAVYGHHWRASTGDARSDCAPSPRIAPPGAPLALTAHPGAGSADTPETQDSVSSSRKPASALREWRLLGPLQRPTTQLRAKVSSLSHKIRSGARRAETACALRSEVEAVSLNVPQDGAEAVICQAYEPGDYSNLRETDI
T1 sequence (P43140 whole entry): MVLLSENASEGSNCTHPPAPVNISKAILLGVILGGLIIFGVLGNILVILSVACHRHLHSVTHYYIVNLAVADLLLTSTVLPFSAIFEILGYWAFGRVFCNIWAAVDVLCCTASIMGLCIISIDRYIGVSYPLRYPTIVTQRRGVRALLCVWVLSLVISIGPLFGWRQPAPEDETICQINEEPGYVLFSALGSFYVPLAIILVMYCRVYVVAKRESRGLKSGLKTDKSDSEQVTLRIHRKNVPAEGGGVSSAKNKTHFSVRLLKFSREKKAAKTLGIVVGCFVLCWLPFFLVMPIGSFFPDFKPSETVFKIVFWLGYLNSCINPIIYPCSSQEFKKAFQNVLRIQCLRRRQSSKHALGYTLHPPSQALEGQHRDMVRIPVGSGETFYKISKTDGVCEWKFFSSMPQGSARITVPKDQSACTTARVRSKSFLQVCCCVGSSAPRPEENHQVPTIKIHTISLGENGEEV

[3] = biological target: T2, Adrenergic receptor alpha-2 (Rattus norvegicus, UniProt P22086+P19328+P22909); test: Affinity for Alpha-2 adrenergic receptor of rat cortical membranes
T2 sequence (P22086 whole entry): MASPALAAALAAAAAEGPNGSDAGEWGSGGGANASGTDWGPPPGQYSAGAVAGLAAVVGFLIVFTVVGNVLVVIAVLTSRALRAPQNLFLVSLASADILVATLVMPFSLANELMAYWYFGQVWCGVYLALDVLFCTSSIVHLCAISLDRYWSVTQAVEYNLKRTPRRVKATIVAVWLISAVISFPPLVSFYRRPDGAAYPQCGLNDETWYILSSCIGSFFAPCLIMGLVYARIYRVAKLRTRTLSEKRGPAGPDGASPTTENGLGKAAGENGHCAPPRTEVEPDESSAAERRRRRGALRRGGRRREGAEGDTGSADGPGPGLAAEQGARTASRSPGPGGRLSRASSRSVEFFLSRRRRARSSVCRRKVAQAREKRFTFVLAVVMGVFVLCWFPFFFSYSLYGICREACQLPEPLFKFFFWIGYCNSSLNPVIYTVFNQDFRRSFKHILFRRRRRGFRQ
T2 sequence (P19328 whole entry): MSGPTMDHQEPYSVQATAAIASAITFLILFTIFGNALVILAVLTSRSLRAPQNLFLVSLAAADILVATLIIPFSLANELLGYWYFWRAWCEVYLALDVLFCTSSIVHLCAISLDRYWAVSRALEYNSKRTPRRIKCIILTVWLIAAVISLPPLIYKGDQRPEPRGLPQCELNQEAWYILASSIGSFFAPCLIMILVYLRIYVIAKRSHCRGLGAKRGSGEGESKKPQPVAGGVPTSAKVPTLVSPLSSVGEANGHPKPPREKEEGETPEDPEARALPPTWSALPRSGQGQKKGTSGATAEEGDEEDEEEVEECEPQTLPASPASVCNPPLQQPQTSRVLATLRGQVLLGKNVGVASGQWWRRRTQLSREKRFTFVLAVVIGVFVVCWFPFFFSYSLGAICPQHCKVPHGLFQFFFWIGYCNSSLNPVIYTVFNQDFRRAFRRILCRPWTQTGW
T2 sequence (P22909 whole entry): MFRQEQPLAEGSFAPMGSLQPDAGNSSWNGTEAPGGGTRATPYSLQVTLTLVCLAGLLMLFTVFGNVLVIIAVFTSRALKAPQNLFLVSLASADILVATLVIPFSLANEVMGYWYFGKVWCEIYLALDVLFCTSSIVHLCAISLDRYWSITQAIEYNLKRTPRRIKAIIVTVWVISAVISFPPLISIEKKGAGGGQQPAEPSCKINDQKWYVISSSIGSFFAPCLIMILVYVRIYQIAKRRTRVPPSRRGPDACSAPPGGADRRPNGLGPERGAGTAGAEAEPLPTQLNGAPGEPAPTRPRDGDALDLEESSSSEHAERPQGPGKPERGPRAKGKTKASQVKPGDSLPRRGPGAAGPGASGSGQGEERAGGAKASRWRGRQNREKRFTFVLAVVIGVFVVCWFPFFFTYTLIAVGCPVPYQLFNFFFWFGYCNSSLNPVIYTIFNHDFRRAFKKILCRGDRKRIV

Sequence of 5-hydroxytryptamine receptor 7 (P32305 whole entry): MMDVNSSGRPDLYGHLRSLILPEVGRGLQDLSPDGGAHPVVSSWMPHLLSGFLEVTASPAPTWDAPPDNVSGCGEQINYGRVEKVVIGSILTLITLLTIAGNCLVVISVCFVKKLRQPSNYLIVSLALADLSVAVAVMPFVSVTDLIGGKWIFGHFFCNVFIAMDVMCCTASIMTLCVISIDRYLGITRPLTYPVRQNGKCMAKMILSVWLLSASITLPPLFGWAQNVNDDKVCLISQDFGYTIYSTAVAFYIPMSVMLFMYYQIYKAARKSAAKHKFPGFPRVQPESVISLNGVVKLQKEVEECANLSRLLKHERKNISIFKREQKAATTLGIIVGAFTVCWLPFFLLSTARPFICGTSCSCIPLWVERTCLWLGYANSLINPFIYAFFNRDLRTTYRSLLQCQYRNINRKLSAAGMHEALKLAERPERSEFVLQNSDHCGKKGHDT

Structure (SMILES): COc1cccc(-c2cccc(NC3=NCCN3)c2C)c1
- Ki [1]: 35.5 nM
- Log Ki [2]: -7.36
- Log Ki [3]: -8

Structure (SMILES): CC(=O)c1cccc(-c2cccc(NC3=NCCN3)c2C)c1.Cl
- Ki [1]: 155 nM
- Log Ki [2]: -7.05
- Log Ki [3]: -7.49

Structure (SMILES): Cc1c(NC2=NCCN2)cccc1-c1cccs1
- Ki [1]: 16.6 nM
- Log Ki [2]: -6.99
- Log Ki [3]: -8.21

Structure (SMILES): COc1ccc(-c2cccc(NC3=NCCN3)c2C)c(OC)c1
- Ki [1]: 40.7 nM
- Log Ki [2]: -6.68
- Log Ki [3]: -7.13

Structure (SMILES): Cc1c(NC2=NCCN2)cccc1-c1cccc(C#N)c1.Cl
- Ki [1]: 170 nM
- Log Ki [2]: -7.04
- Log Ki [3]: -7.66

Structure (SMILES): COc1ccc(-c2cccc(NC3=NCCN3)c2C)cc1
- Ki [1]: 27.5 nM
- Log Ki [2]: -6.58
- Log Ki [3]: -7.59

Structure (SMILES): Cc1c(NC2=NCCN2)cccc1-c1ccsc1
- Ki [1]: 31.6 nM
- Log Ki [2]: -7.16
- Log Ki [3]: -7.96

Structure (SMILES): Cc1c(NC2=NCCN2)cccc1-c1cccc(C(C)C)c1
- Ki [1]: 182 nM
- Log Ki [2]: -5.92
- Log Ki [3]: -6.96

Structure (SMILES): Cc1c(NC2=NCCN2)cccc1-c1cccc(C(F)(F)F)c1
- Ki [1]: 45.7 nM
- Log Ki [2]: -6.59
- Log Ki [3]: -7.1

Structure (SMILES): Cc1cccc(-c2cccc(NC3=NCCN3)c2C)c1
- Ki [1]: 21.4 nM
- Log Ki [2]: -6.78
- Log Ki [3]: -7.75

Structure (SMILES): Cc1c(NC2=NCCN2)cccc1-c1cccc(Cl)c1
- Ki [1]: 26.3 nM
- Log Ki [2]: -6.88
- Log Ki [3]: -7.62

Structure (SMILES): Cc1c(NC2=NCCN2)cccc1-c1ccccc1
- Ki [1]: 16.2 nM
- Log Ki [2]: -6.68
- Log Ki [3]: -7.71

Structure (SMILES): Cc1c(NC2=NCCN2)cccc1-c1cccc(F)c1
- Ki [1]: 28.2 nM
- Log Ki [2]: -6.56
- Log Ki [3]: -7.58

Structure (SMILES): Cc1c(NC2=NCCN2)cccc1-c1cccnc1
- Ki [1]: 257 nM
- Log Ki [2]: -6.59
- Log Ki [3]: -8.29
